Tests used:
[1] = Biodistribution of Al^18F(IMP485) alone or TF2 pretargeted; settings: mouse, in vivo, iv
Protocol: (§1) Mice were necropsied at 1 and 3 h post injection, 7 mice per time point.
(§2) Biodistribution studies were performed in Taconic nude mice bearing subcutaneous LS174T tumor xenografts.
(§3) Mice were necropsied at 1 and 3 h post injection, 6 mice per time point.

[2] = system: nude mice bearing LS174T human colonic cancer xenografts; assay: in vivo
Protocol: as §1, §2, §3

[3] = Stability of Al^18F(IMP485)/IMP487 in human serum at 37° C.; assay type: in vitro ADME; settings: four hours
Protocol: A kit containing 40 nmol of IMP485 or IMP487, 20 nmol AlCl3, 0.1 mg ascorbic acid and 0.1 g trehalose adjusted to pH 3.9 was reconstituted with purified ^18F^− in 200 μL saline and heated 106° C. for 15 min. The reaction mixture was then diluted with 800 μL water and placed on an HLB column. […] The radiolabeled peptide in […] was mixed with 250 μL of fresh human serum in a vial and incubated at 37° C.
The purified radiolabeled peptide in 50 μL 1:1 EtOH/H2O was mixed with 150 μL of human serum and placed in the HPLC autosampler heated to 37° C. and analyzed by RP-HPLC.

[4] = Taconic nude, % ID/org Lg. Int.
[5] = Taconic nude, % ID/org Sm. Int.
[6] = nude (Taconic), 28 uCi, total radioactivity, % ID/g Lung
[7] = Taconic nude, mouse, in vivo, iv, 1 h
[8] = Taconic nude, mouse, in vivo, iv, 3 h
[9] = nude (Taconic), mouse, in vivo, iv, 3 h
[10] = nude, mouse, in vivo, iv, 28 uCi, 3 h

## NC(=O)[C@@H](CCCCNC(=O)CNC(=O)CCC(=O)NCCc1c[nH]cn1)NC(=O)[C@@H](Cc1ccc(O)cc1)NC(=O)[C@@H](CCCCNC(=O)CNC(=O)CCC(=O)NCCc1c[nH]cn1)NC(=O)Cc1ccc(CN2CCN(CC(=O)O)CCN(CC(=O)O)CC2)cc1 [Al^18F(IMP485)]
[1]; Taconic nude
  tissue uptake at 3 h: 0.353 %ID/g
[1]; Taconic nude, % ID/g Blood
  tissue uptake at 3 h: 0.023 %ID/g
[1]; Taconic nude, % ID/g Kidney
  tissue uptake at 1 h: 3.19 %ID/g
[1]; Taconic nude, % ID/g Lg. Int.
  tissue uptake at 1 h: 0.104 %ID/g
  tissue uptake at 3 h: 0.35 ± 0.16 %ID/g
[1]; Taconic nude, % ID/g Liver
  tissue uptake at 1 h: 0.237 %ID/g
[1]; Taconic nude, % ID/g Lung
  tissue uptake at 3 h: 0.244 %ID/g
[1]; Taconic nude, % ID/g Muscle
  tissue uptake at 1 h: 0.136 %ID/g
  tissue uptake at 3 h: 0.025 %ID/g
[1]; Taconic nude, % ID/g Scapula
  tissue uptake at 1 h: 0.5 %ID/g
[1]; Taconic nude, % ID/g Sm. Int.
  tissue uptake at 3 h: 0.071 %ID/g
[1]; Taconic nude, % ID/g Spleen
  tissue uptake at 1 h: 0.254 %ID/g
[1]; Taconic nude, % ID/g Stomach
  tissue uptake at 3 h: 0.025 %ID/g
[1]; Taconic nude, % ID/g Tumor
  tissue uptake at 1 h: 28.1 %ID/g
[1]; Taconic nude, % ID/org Blood
  tissue uptake dose at 3 h: 0.037 %ID
[1]; Taconic nude, % ID/org Kidney
  tissue uptake dose at 1 h: 0.444 %ID
[1]; [4]
  tissue uptake dose at 1 h: 0.055 %ID
  tissue uptake dose at 3 h: 0.206 %ID
[1]; Taconic nude, % ID/org Liver
  tissue uptake dose at 1 h: 0.295 %ID
[1]; Taconic nude, % ID/org Lung
  tissue uptake dose at 3 h: 0.035 %ID
[1]; Taconic nude, % ID/org Muscle
  tissue uptake dose at 1 h: 0.012 %ID
  tissue uptake dose at 3 h: 0.002 %ID
[1]; Taconic nude, % ID/org Scapula
  tissue uptake dose at 1 h: 0.095 %ID
[1]; [5]
  tissue uptake dose at 1 h: 0.586 %ID
  tissue uptake dose at 3 h: 0.059 %ID
[1]; Taconic nude, % ID/org Spleen
  tissue uptake dose at 1 h: 0.02 %ID
[1]; Taconic nude, % ID/org Stomach
  tissue uptake dose at 3 h: 0.01 %ID
[1]; Taconic nude, % ID/org Tumor
  tissue uptake dose at 1 h: 8.03 %ID
[1]; nude (Taconic), 28 uCi, total radioactivity
  tissue uptake at 1 h: 0.114 %ID/g
[1]; nude (Taconic), 28 uCi, total radioactivity, % ID/g Blood
  tissue uptake at 1 h: 0.165 %ID/g
[1]; nude (Taconic), 28 uCi, total radioactivity, % ID/g Lg. Int.
  tissue uptake at 1 h: 0.081 %ID/g
[1]; nude (Taconic), 28 uCi, total radioactivity, % ID/g Liver
  tissue uptake at 1 h: 0.176 %ID/g
[1]; [6]
  tissue uptake at 1 h: 0.238 %ID/g
  tissue uptake at 3 h: 0.073 %ID/g
[1]; nude (Taconic), 28 uCi, total radioactivity, % ID/g Scapula, alone, 1 h post injection
  tissue uptake at 1 h: 0.107 %ID/g
[1]; nude (Taconic), 28 uCi, total radioactivity, % ID/g Sm. Int., alone, 1 h post injection
  tissue uptake at 1 h: 0.396 %ID/g
[1]; nude (Taconic), 28 uCi, total radioactivity, % ID/g Spleen, alone, 1 h post injection
  tissue uptake at 1 h: 0.21 %ID/g
[1]; nude (Taconic), 28 uCi, total radioactivity, % ID/g Stomach, alone, 1 h post injection
  tissue uptake at 1 h: 0.126 %ID/g
[1]; nude (Taconic), 28 uCi, total radioactivity, % ID/g Tumor, alone, 1 h post injection
  tissue uptake at 1 h: 0.316 %ID/g
[1]; nude (Taconic), 28 uCi, total radioactivity, % ID/org Blood, alone, 1 h post injection
  tissue uptake dose at 1 h: 0.268 %ID
[1]; nude (Taconic), 28 uCi, total radioactivity, % ID/org Kidney, alone, 1 h post injection
  tissue uptake dose at 1 h: 0.499 %ID
[1]; nude (Taconic), 28 uCi, total radioactivity, % ID/org Lg. Int., alone, 1 h post injection
  tissue uptake dose at 1 h: 0.041 %ID
[1]; nude (Taconic), 28 uCi, total radioactivity, % ID/org Liver, alone, 1 h post injection
  tissue uptake dose at 1 h: 0.22 %ID
[1]; nude (Taconic), 28 uCi, total radioactivity, % ID/org Lung, alone, 1 h post injection
  tissue uptake dose at 1 h: 0.033 %ID
[1]; nude (Taconic), 28 uCi, total radioactivity, % ID/org Scapula, alone, 1 h post injection
  tissue uptake dose at 1 h: 0.006 %ID
[1]; nude (Taconic), 28 uCi, total radioactivity, % ID/org Sm. Int., alone, 1 h post injection
  tissue uptake dose at 1 h: 0.353 %ID
[1]; nude (Taconic), 28 uCi, total radioactivity, % ID/org Spleen, alone, 1 h post injection
  tissue uptake dose at 1 h: 0.018 %ID
[1]; nude (Taconic), 28 uCi, total radioactivity, % ID/org Stomach, alone, 1 h post injection
  tissue uptake dose at 1 h: 0.057 %ID
[1]; nude (Taconic), 28 uCi, total radioactivity, % ID/org Tumor, alone, 1 h post injection
  tissue uptake dose at 1 h: 0.081 %ID
[1]; nude (Taconic), total radioactivity, % ID/g Kidney
  tissue uptake at 3 h: 2.22 %ID/g
[1]; nude (Taconic), total radioactivity, % ID/g Liver
  tissue uptake at 3 h: 0.142 %ID/g
[1]; nude (Taconic), total radioactivity, % ID/g Scapula
  tissue uptake at 3 h: 0.058 %ID/g
[1]; nude (Taconic), total radioactivity, % ID/g Spleen
  tissue uptake at 3 h: 0.138 %ID/g
[1]; nude (Taconic), total radioactivity, % ID/org Kidney
  tissue uptake dose at 3 h: 0.319 %ID
[1]; nude (Taconic), total radioactivity, % ID/org Liver
  tissue uptake dose at 3 h: 0.178 %ID
[1]; nude (Taconic), total radioactivity, % ID/org Scapula
  tissue uptake dose at 3 h: 0.008 %ID
[1]; nude (Taconic), total radioactivity, % ID/org Spleen
  tissue uptake dose at 3 h: 0.011 %ID
[1]; nude (Taconic), total radioactivity, % ID/org Tumor
  tissue uptake dose at 3 h: 8.13 %ID
[1]; nude, 28 uCi, total radioactivity, % ID/g Lg. Int.
  tissue uptake at 3 h: 0.713 %ID/g
[1]; nude, 28 uCi, total radioactivity, % ID/g Liver
  tissue uptake at 3 h: 0.095 %ID/g
[1]; nude, 28 uCi, total radioactivity, % ID/g Muscle
  tissue uptake at 3 h: 0.013 %ID/g
[1]; nude, 28 uCi, total radioactivity, % ID/g Sm. Int., alone, 3 h post injection
  tissue uptake at 3 h: 0.137 %ID/g
[1]; nude, 28 uCi, total radioactivity, % ID/g Spleen, alone, 3 h post injection
  tissue uptake at 3 h: 0.065 %ID/g
[1]; nude, 28 uCi, total radioactivity, % ID/g Stomach, alone, 3 h post injection
  tissue uptake at 3 h: 0.041 %ID/g
[1]; nude, 28 uCi, total radioactivity, % ID/g Tumor, alone, 3 h post injection
  tissue uptake at 3 h: 0.088 %ID/g
[1]; nude, 28 uCi, total radioactivity, % ID/org Blood, alone, 3 h post injection
  tissue uptake dose at 3 h: 0.013 %ID
[1]; nude, 28 uCi, total radioactivity, % ID/org Kidney, alone, 3 h post injection
  tissue uptake dose at 3 h: 0.345 %ID
[1]; nude, 28 uCi, total radioactivity, % ID/org Lg. Int., alone, 3 h post injection
  tissue uptake dose at 3 h: 0.408 %ID
[1]; nude, 28 uCi, total radioactivity, % ID/org Liver, alone, 3 h post injection
  tissue uptake dose at 3 h: 0.114 %ID
[1]; nude, 28 uCi, total radioactivity, % ID/org Scapula, alone, 3 h post injection
  tissue uptake dose at 3 h: 0.006 %ID
[1]; nude, 28 uCi, total radioactivity, % ID/org Sm. Int., alone, 3 h post injection
  tissue uptake dose at 3 h: 0.119 %ID
[1]; nude, 28 uCi, total radioactivity, % ID/org Spleen, alone, 3 h post injection
  tissue uptake dose at 3 h: 0.006 %ID
[1]; nude, 28 uCi, total radioactivity, % ID/org Stomach, alone, 3 h post injection
  tissue uptake dose at 3 h: 0.016 %ID
[1]; nude, 28 uCi, total radioactivity, % ID/org Tumor, alone, 3 h post injection
  tissue uptake dose at 3 h: 0.022 %ID
[1]; nude, total radioactivity, % ID/g Blood
  tissue uptake at 1 h: 0.278 %ID/g
[1]; nude, total radioactivity, % ID/g Lung
  tissue uptake at 1 h: 0.535 %ID/g
[1]; nude, total radioactivity, % ID/g Sm. Int.
  tissue uptake at 1 h: 0.686 %ID/g
[1]; nude, total radioactivity, % ID/g Stomach
  tissue uptake at 1 h: 0.534 %ID/g
[1]; nude, total radioactivity, % ID/org Blood
  tissue uptake dose at 1 h: 0.456 %ID
[1]; nude, total radioactivity, % ID/org Lung
  tissue uptake dose at 1 h: 0.075 %ID
[1]; nude, total radioactivity, % ID/org Stomach
  tissue uptake dose at 1 h: 0.265 %ID
[2]; [7]
  % ID/g Lg. Int.: 0.10 ± 0.03 % ID/g
  % ID/g Liver: 0.24 ± 0.04 % ID/g
  % ID/g Muscle: 0.14 ± 0.10 % ID/g
[2]; [8]
  % ID/g Blood: 0.02 ± 0.01 % ID/g
  % ID/g Lung: 0.24 ± 0.06 % ID/g
  % ID/g Muscle: 0.03 ± 0.01 % ID/g
  % ID/g Stomach: 0.03 ± 0.02 % ID/g
[2]; alone, 1 h post injection
  % ID/g Sm. Int.: 0.40 ± 0.13 % ID/g
  % ID/g Spleen: 0.21 ± 0.18 % ID/g
  % ID/g Stomach: 0.13 ± 0.11 % ID/g
  % ID/g Tumor: 0.32 ± 0.11 % ID/g
  T/NT Blood: 2.0
  T/NT Kidney: 0.1
  T/NT Lg. Int.: 3.9
  T/NT Liver: 1.8
  T/NT Lung: 1.3
  T/NT Muscle: 4.1
  T/NT Scapula: 2.9
  T/NT Sm. Int.: 0.8
  T/NT Spleen: 1.9
  T/NT Stomach: 3.5
  T/NT Tumor: 1.0
[2]; alone, 3 h post injection
  % ID/g Stomach: 0.04 ± 0.02 % ID/g
  % ID/g Tumor: 0.09 ± 0.02 % ID/g
  T/NT Blood: 21.0
  T/NT Kidney: 0.0
  T/NT Lg. Int.: 0.1
  T/NT Liver: 13.6
  T/NT Lung: 1.3
  T/NT Muscle: 203.9
  T/NT Scapula: 1.2
  T/NT Sm. Int.: 0.7
  T/NT Spleen: 1.4
  T/NT Stomach: 2.5
  T/NT Tumor: 1.0
[2]; mouse, in vivo
  T/NT Tumor: 1
[2]; nude (Taconic), mouse, in vivo, iv, 28 uCi, 1 h
  % ID/g Lg. Int.: 0.08 ± 0.02 % ID/g
[2]; nude (Taconic), mouse, in vivo, iv, 28 uCi, 3 h
  % ID/g Lung: 0.07 ± 0.02 % ID/g
[2]; [9]
  % ID/g Scapula: 0.06 ± 0.02 % ID/g
  % ID/g Spleen: 0.25 ± 0.11 % ID/g
[2]; [10]
  % ID/g Liver: 0.10 ± 0.05 % ID/g
  % ID/g Muscle: 0.01 ± 0.01 % ID/g
[2]; nude, mouse, in vivo, iv, 1 h
  % ID/g Blood: 0.28 ± 0.07 % ID/g
  % ID/g Stomach: 0.53 ± 1.18 % ID/g
[3]
  stability in human serum: stable

From patent US20160199524A1, “RADIOSENSITIVITY OF FLUOROPHORES AND USE OF RADIOPROTECTIVE AGENTS FOR DUAL-MODALITY IMAGING” (Immunomedics, Inc., priority 2015, published 2016)
